Earlier results in US10624840B2, “Method for performing cosmetic surgical procedures using tumescent anesthesia and oral sedation” (priority 2017, dated 2020).

Test system: patient
Conditions: oral

In the case of `O=C1Nc2ccc(Cl)cc2C(c2ccccc2Cl)=NC1O` (stereo not shown) [Lorazepam, lorazepam], the “duration of lasting effects on a patient” value is listed as 10 to 20 h.
